Laboratory results as given in paper PMC4192545, “Suramin Inhibits Hsp104 ATPase and Disaggregase Activity” (PLoS ONE, 2014).
pIC50: −log10 of the molar value.

Assays:
[1] = target: T1, Hsp104 (Saccharomyces cerevisiae, UniProt P31539); assay: Gel filtration of Hsp104 (hexamerization); parameters: species or system yeast; settings: Suramin 100 µM, with or without ATP 1 mM
T1 construct: made in house; host or cells: E. coli BL21-DE3 RIL
Experimental: Hsp104 was diluted into ATPase buffer with or without Suramin (100 µM) in the presence or absence of ATP (1 mM). The Hsp104 concentration was adjusted to 120 µM monomer and 20 µL of sample were fractionated by a Superdex 200 10/300 column (GE Healthcare Life Sciences, Piscataway, NJ) at room temperature and at a flow rate of 0.5 mL per minute in line with an Optilab T-rEX Refractive Interferometer (Wyatt Technologies, Santa Barbara, CA). Molecular weight markers were purchased from Bio-Rad Laboratories (Hercules, CA).

[2] = tested on: Δpdr5 yeast; assay: Thermotolerance of Δpdr5 yeast; assay type: cell-based; settings: Suramin 100 µM, data not shown
[3] = target: T2, Hsp104^WT (Saccharomyces cerevisiae, UniProt P31539); assay: Manual ATPase assay, Hsp104^WT; assay type: biochemical, yeast; settings: for Normalized ATPase Activity: Figure 2B
T2 construct: made in house; host or cells: E. coli BL21-DE3 RIL
T2 sequence (P31539 whole entry): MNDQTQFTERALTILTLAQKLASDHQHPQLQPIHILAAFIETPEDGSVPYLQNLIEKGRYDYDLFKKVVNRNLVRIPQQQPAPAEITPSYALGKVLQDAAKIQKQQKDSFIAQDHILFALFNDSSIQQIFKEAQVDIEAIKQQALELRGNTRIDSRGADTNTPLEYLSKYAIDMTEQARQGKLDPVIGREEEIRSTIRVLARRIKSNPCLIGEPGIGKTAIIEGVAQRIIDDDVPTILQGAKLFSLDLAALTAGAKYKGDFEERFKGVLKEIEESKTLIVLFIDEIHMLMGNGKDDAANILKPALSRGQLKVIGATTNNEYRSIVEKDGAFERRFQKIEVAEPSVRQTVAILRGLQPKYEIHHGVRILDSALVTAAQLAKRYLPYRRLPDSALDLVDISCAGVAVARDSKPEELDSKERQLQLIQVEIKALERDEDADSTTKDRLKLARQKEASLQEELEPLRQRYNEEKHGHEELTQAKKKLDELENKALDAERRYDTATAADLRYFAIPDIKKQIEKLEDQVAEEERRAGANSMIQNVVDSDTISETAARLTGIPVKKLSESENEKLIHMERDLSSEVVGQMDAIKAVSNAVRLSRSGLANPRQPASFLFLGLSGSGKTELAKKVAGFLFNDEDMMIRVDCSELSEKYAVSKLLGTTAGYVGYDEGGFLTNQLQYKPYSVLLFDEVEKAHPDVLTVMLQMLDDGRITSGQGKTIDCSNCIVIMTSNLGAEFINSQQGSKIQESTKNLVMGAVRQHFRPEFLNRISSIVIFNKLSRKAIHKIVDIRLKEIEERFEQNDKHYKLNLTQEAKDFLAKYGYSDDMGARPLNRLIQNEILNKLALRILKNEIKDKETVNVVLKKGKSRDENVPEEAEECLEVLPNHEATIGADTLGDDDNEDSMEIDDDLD
Experimental: Wild-type or mutant Hsp104 (0.25 µM monomer) in ATPase buffer (20 mM HEPES-KOH pH 7.4, 20 mM NaCl and 10 mM MgCl2) was incubated for 60 or 10 min at 25°C in the presence of ATP (1 mM) as noted. ATPase activity was assessed by the release of inorganic phosphate determined by using a malachite green phosphate detection kit (Innova).

[4] = target: T3, Hsp104^A503V (Saccharomyces cerevisiae, UniProt P31539, A503V); assay: biochemical; assay type: biochemical, yeast
T3 construct: made in house; host or cells: E. coli BL21-DE3 RIL
T3 sequence (P31539 whole entry A503V): as the sequence (P31539 whole entry) above, with A503V counted along it
Experimental: Luciferase reactivation was performed as described, [37]. To assemble aggregates, firefly luciferase (50 µM) in luciferase refolding buffer (LRB, 25 mM HEPES-KOH, 7.4, 150 mM KAOc, 10 mM MgAOc, 10 mM DTT) with 6 M urea was incubated at 30°C for 20 min. Luciferase was then rapidly diluted 100-fold into LRB, divided into 100 µL aliquots, snap frozen in liquid N2, and stored at −80°C. For reactivation assays, aggregated luciferase (50 nM) was incubated with Hsp104 (1 µM hexamer), plus 2.6 mM ATPγS, 2.6 mM ATP and an ATP regeneration system (1 mM creatine phosphate, 0.25 µM creatine kinase (Roche Applied Science)) for 90 minutes at 25°C. Luciferase assay system was purchased from Promega. Luciferase activity was assessed by luminescence measured on a Safire^2 microplate reader (Tecan, Männedorf, Switzerland). The half maximal inhibitory concentration (IC50) was calculating by fitting luciferase-refolding data at different Suramin concentrations with Prism (GraphPad Software, Inc., La Jolla, CA).
(A) Hsp104 variants (0.25 µM monomer) were incubated for 10 min with ATP (1 mM) and varying concentrations of Suramin. The amount of Pi produced was measured by absorbance at 635 nm. Absorbance values were normalized to the absorbance produced by each Hsp104 variant in the absence of inhibitor. Values represent mean ±S.D. (n = 6). (B) Urea-denatured firefly luciferase aggregates were incubated for 90 min at 25°C with Hsp104 variants (1 µM hexamer) plus 1∶1 mixtures of ATP and ATPγS (or ATP alone) and varying concentrations of Suramin. Luciferase reactivation was then determined and normalized to untreated disaggregase activity for each variant in the presence of ATPγS: ATP (or ATP alone). 1∶1 mixtures of ATP and ATPγS were used for Hsp104^WT and Hsp104^T317A, while ATP alone was used for Hsp104^A503V and Hsp104^N728A. Values represent mean ±S.D. (n = 6–12).

T1 sequence (P31539 whole entry): as the sequence (P31539 whole entry) above

Structure (SMILES): Cc1ccc(C(=O)Nc2ccc(S(=O)(=O)O)c3cc(S(=O)(=O)O)cc(S(=O)(=O)O)c23)cc1NC(=O)c1cccc(NC(=O)Nc2cccc(C(=O)Nc3cc(C(=O)Nc4ccc(S(=O)(=O)O)c5cc(S(=O)(=O)O)cc(S(=O)(=O)O)c45)ccc3C)c2)c1 [Suramin]
- Effect on Hsp104 hexamerization (gel filtration elution profile) [1]: does not interfere with hexamerization
- Effect on thermotolerance [2]: impaired neither
- pIC50 ([3]; 10 min reaction, ATP 1 mM): ~5.47
- Effect on Hsp104 ATPase activity (Pi produced), manual assay ([3]; 60 min, ATP 1 mM, varying concentrations, Figure 2A): greatly diminished the amount of Pi produced in a concentration-dependent manner
- Inhibitor concentration of maximal ATPase inhibition ([3]; Hsp104 WT): 25 µM
- Normalized ATPase Activity ([3]; Suramin 1 µM, 10 min, ATP 1 mM): 1.08
- Normalized ATPase Activity ([3]; Suramin 5 µM, 10 min, ATP 1 mM): 0.62
- Normalized ATPase Activity ([3]; Suramin 10 µM, 10 min, ATP 1 mM): 0.37
- Normalized ATPase Activity ([3]; Suramin 25 µM, 10 min, ATP 1 mM): 0.27
- activity at 25 µM ([3]; Suramin 25 µM, 10 min, read-out: Hsp104^WT ATPase activity relative to uninhibited Hsp104): 30%
- Normalized ATPase Activity ([3]; Suramin 50 µM, 10 min, ATP 1 mM): 0.29
- inhibition at 100 µM ([3]; Suramin 100 µM, 10 min): > 60%
- Normalized ATPase Activity ([3]; Suramin 100 µM, 10 min, ATP 1 mM): 0.33
- activity at 100 µM ([3]; Suramin 100 µM, 10 min, read-out: Hsp104^WT ATPase activity relative to uninhibited protein): ~35%
- Normalized ATPase Activity ([3]; Suramin 250 µM, 10 min, ATP 1 mM): 0.37
- pIC50 [4]: ~6.21
- Hsp104^A503V refolding activity ([4]; Suramin 1 µM, ATP alone): less than 50%
